Assay results published in PubChem BioAssay (NCI).
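Exposure lasted 48 hours, with cells grown in 96-well plates and compounds tested at five concentrations. Abbreviation: GI50, concentration required for 50% inhibition of growth. TGI is the concentration that stops growth completely.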

Tests used:
Assay in all cases: NCI tumour cell line growth inhibition, 48 h
[1] = tested on: HCC-2998 colon
[2] = tested on: COLO 205 colon
[3] = tested on: A498 renal
[4] = tested on: SK-MEL-28 melanoma
[5] = tested on: NCI-H522 lung
[6] = tested on: ACHN renal
[7] = tested on: SR leukemia
[8] = tested on: NCI-H460 lung

SMILES	GI50 [1] [µM]	TGI [1] [µM]	GI50 [2] [µM]	TGI [2] [µM]	GI50 [3] [µM]	TGI [3] [µM]	GI50 [4] [µM]	TGI [4] [µM]	GI50 [5] [µM]	TGI [5] [µM]	GI50 [6] [µM]	TGI [6] [µM]	GI50 [7] [µM]	TGI [7] [µM]	GI50 [8] [µM]	TGI [8] [µM]
CC(CN1CCN(C)CC1)CN1c2ccccc2Sc2ccc(C(F)(F)F)cc21 (centres undefined)	1.63	3.07	1.89	3.65	2.98	15.2	1.91	3.42	1.79	3.37	1.67	3.27	2.01	5.32	1.93	3.84
CC(=O)Nc1ccccc1C=C1c2ccccc2-c2ccccc21	–	> 100	–	> 100	–	> 100	–	> 100	–	> 100	–	> 100	–	> 100	–	> 100
CC1=CCC(OC(=O)C(C)(C)CCC(O)(C(=O)OC2(C(C)C)CCC3(C)OC3C2)C(C)C)(C(C)C)CC1 (centres undefined)	2.13	7.33	0.496	1.59	0.0508	0.935	0.993	3.01	0.13	0.439	0.107	0.311	0.266	1.51	0.57	1.39
N=c1c2c(-c3ccccc3)c(-c3ccccc3)n(Cc3ccccc3)c2ncn1CCCO	1.43	7.07	0.681	2.02	3.3	19.7	1.44	3.4	0.756	3.46	0.457	14.3	0.268	6.4	0.448	4.47
CN(C)c1ccc(-c2cc(-c3ccc(Nc4nc(Nc5ccccc5)nc(Nc5ccc(Cl)cc5)n4)cc3)nc(N)n2)cc1	13.7	87.9	2.04	11.6	4.63	20.1	10.8	29.9	5.8	38.7	5.88	> 100	1.39	5.02	3.71	14.1
COC(=O)c1cc(-c2cc(OC)c(OC)c(OC)c2)[nH]c1N/N=C/c1c(Cl)cccc1Cl	2.36	18.4	4.49	> 68	0.683	2.46	2.8	12.4	3.39	18.6	0.963	9.17	0.926	> 100	1.48	18.3
C[C@H]1[C@H](C)CC[C@]2(C(=O)N3CCN(C)CC3)CC[C@]3(C)C(=CC[C@@H]4[C@@]5(C)C/C(=C/c6cccnc6)C(=O)C(C)(C)[C@@H]5CC[C@]43C)[C@H]12	1.28	2.67	1.53	4.78	1.52	2.92	1.4	2.76	0.328	1.3	1.23	2.49	1.37	> 100	0.891	2.45
